From paper PMC9247443 (Frontiers in Pharmacology, 2022)
“And” between values parts separate entries of the source, which are not always exact repeats. Identical values can stand only once.

How the values were obtained:
human S1P1 [1] = target: T1, human S1P1 (Homo sapiens, UniProt P21453); experiment: [^3H]-ozanimod competition radioligand binding
Description: (§1) Stable clones of Chinese hamster ovary (CHO) cells expressing human S1P1 and S1P5 were generated by transfecting the cells with the N-terminal hemagglutinin-tagged receptor in pcDNA3.1 expression vectors followed by antibiotic selection for S1P1 and S1P5 and picking of clones using cyclic adenosine monophosphate assay, fluorescence-activated flow cytometry using the associated tag as well as functional [^35S]-GTPγS binding assays. Stable clones of CHO cells expressing human S1P2, S1P3, and S1P4 with an N-terminal FLAG tag were purchased from Multispan, Inc. (Hayward, CA, United States; catalog numbers C1051-1, CG1049-1, and CG1052-1 for S1P2, S1P3, and S1P4, respectively). Cells were grown to confluence in adherent culture in 500-cm^2 culture trays before being detached with cell scraper in cell-lifting buffer (10 mM HEPES/154 mM NaCl/6.85 mM ethylenediaminetetraacetic acid [EDTA], pH 7.4) and pelleted by centrifugation for 5 min at 1000 rpm. Cell pellets were then resuspended and homogenized in membrane preparation buffer (10 mM HEPES/10 mM EDTA, pH 7.4) using a Polytron PT 1200E homogenizer (Kinematica, Luzern, Switzerland). To collect the membrane pellet, cell homogenates were centrifuged at 48,000 × g at 4°C for 30 min. After discarding the supernatant, the pellet was rehomogenized and recentrifuged as described above. The final pellet was collected and homogenized in ice-cold resuspension buffer (10 mM HEPES and 0.1 mM EDTA, pH 7.4).
(§2) Assay plates were sealed and incubated at room temperature with gentle agitation for 60 min before filtration as described above.
(§3) Data were again analyzed as raw counts per 60 s per well collected from the MicroBeta2 counter.

human S1P5 [2] = target: T2, human S1P5 (Homo sapiens, UniProt Q9H228); experiment: [^3H]-ozanimod competition radioligand binding
T2 sequence (Q9H228 whole entry): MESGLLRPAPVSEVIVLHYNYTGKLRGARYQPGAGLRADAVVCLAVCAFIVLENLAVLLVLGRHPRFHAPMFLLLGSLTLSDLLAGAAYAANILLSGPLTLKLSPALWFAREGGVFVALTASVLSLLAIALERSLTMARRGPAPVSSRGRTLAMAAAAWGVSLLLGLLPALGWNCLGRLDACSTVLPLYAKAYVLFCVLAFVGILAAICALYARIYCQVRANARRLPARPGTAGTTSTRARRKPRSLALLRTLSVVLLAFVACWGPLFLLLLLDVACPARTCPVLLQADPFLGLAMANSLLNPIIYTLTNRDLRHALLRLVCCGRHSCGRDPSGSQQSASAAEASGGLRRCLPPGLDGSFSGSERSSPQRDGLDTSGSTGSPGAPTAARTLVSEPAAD
Description: as §1, §2, §3

human S1P3 = target: T3, human S1P3 (Homo sapiens, UniProt Q99500); experiment: [^35S]-GTPγS binding; type: biochemical; settings: mean ± SEM; for EC50: [^35S]-GTPγS binding, CHO cell membranes; for Human S1P3 IA: intrinsic activity relative to maximal S1P response (100%)
T3 construct: membrane preparation
T3 sequence (Q99500 whole entry): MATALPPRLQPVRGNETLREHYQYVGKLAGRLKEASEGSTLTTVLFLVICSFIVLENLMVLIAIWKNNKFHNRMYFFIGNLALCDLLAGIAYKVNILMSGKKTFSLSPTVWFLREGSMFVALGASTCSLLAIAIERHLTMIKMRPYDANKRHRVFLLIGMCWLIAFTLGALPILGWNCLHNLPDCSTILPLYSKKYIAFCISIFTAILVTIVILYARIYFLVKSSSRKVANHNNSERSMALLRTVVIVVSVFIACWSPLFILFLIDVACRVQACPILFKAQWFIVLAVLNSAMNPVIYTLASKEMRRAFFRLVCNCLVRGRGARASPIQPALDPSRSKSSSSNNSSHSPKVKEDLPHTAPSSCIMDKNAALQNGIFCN
Description: as §1
(§4) To quantitate receptor activation and G protein coupling, [^35S]-GTPγS binding assays were performed in 96-well nonbinding surface plates (Corning, New York, New York, United States; catalog number 3604) in a final volume of 200 μl. Test compounds were serial diluted in DMSO directly to the assay plate using the Tecan D300E digital printer in a total volume of 0.4 μl. […] All wells were brought to a total volume of 40 μl with assay buffer, and the reaction was initiated by the addition of 120 μl/well of assay buffer containing a mixture of 40 μg/ml S1P1–S1P5 membranes, 5–50 μM GDP (5 μM for S1P2 and S1P4, 16.67 μM GDP for S1P1 and S1P5, and 50 μM for S1P3), and 2.5 mg/ml of WGA PVT SPA beads (Perkin Elmer catalog number RPNQ0001). Assay plates were sealed and incubated at room temperature with gentle agitation for 30 min before adding 40 μl/well of 5× [^35S]-GTPγS (200 p.m. final) (Perkin Elmer, catalog number NEG030X250UC) in basic assay buffer (20 mM HEPES/10 mM MgCl2/100 mM NaCl/1 mM EDTA, pH 7.4) and then plates were resealed for an additional 40-min incubation at room temperature with gentle agitation. The experiment was terminated by centrifugation of the plates at 1000 rpm for 3 min using an Eppendorf (Hamburg, Germany) 5810R centrifuge and read on the MicroBeta2 microplate scintillation counter. Data were analyzed as raw counts per 40 s per well as collected from the MicroBeta2 counter. Raw counts were analyzed with GraphPad Prism version 8.0.0 using nonlinear regression to generate concentration response curves.

human S1P1 [3] = target: T1, human S1P1; experiment: [^35S]-GTPγS binding; type: biochemical; settings: mean ± SEM; for EC50: [^35S]-GTPγS binding, CHO cell membranes; for Human S1P1 IA: intrinsic activity relative to maximal S1P response (100%)
Description: as §1, §4

human S1P2 = target: T4, human S1P2 (Homo sapiens, UniProt O95136); experiment: [^35S]-GTPγS binding; type: biochemical; settings: mean ± SEM; for EC50: [^35S]-GTPγS binding, CHO cell membranes; for Human S1P2 IA: intrinsic activity relative to maximal S1P response (100%)
T4 construct: membrane preparation
T4 sequence (O95136 whole entry): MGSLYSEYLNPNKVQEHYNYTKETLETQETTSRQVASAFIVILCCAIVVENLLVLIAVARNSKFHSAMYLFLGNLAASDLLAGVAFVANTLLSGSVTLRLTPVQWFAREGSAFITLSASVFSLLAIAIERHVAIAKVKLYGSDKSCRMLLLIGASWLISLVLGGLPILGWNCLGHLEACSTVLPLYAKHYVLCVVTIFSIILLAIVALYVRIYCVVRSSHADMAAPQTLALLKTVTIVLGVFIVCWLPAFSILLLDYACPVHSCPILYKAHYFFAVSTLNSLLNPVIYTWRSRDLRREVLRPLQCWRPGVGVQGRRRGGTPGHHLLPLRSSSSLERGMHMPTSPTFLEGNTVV
Description: as §1, §4

human S1P4 = target: T5, human S1P4 (Homo sapiens, UniProt O95977); experiment: [^35S]-GTPγS binding; type: biochemical; settings: mean ± SEM; for EC50: [^35S]-GTPγS binding, CHO cell membranes; for Human S1P4 IA: intrinsic activity relative to maximal S1P response (100%)
T5 construct: membrane preparation
T5 sequence (O95977 1-384): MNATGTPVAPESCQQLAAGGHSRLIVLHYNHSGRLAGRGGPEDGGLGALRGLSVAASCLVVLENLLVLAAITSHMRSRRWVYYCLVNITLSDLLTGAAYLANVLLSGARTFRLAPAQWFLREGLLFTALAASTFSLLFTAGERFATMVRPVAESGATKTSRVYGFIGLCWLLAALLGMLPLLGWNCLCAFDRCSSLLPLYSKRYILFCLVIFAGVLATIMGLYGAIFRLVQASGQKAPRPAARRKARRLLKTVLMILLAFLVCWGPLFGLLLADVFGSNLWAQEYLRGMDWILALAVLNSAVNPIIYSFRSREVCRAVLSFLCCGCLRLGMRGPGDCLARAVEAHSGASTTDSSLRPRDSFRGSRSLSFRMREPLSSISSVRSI
Description: as §1, §4

human S1P5 [4] = target: T2, human S1P5; experiment: [^35S]-GTPγS binding; type: biochemical; settings: for EC50: [^35S]-GTPγS binding, CHO cell membranes; for EC50 / Human S1P5 IA: mean ± SEM; for Human S1P5 IA: intrinsic activity relative to maximal S1P response (100%); for GTPγS potency for human S1P5 weaker than that for S1P1: S1P5 versus S1P1 EC50
Description: as §1, §4

human S1P1 [5] = target: T1, human S1P1; experiment: S1P1-mediated β-arrestin recruitment assay (PathHunter eXpress EDG1 CHO-K1); type: cell-based; settings: for Emax: CHO-K1, read-out: β-arrestin recruitment Intrinsic Activity, human S1P1; for EC50: EDG1(S1P1)/β-arrestin CHO-K1 cells, 90 min, mean ± SEM (n = 3–5) or SD (n = 2)
Protocol: Human S1P1 β-arrestin assays were carried out using the PathHunter® eXpress EDG1 CHO-K1 β-arrestin GPCR Assay (DiscoverX, Cat# 93-0207E2, including frozen cell stock, assay media, and assay plate). EDG1(S1P1)/β-arrestin CHO-K1 cells were thawed by adding 0.5 ml warm media to the vial. The cells were then transferred to 11.5 ml warm media, seeded at a density of 10,000 cells per well in a 96 well assay plate in a volume of 100 μL per well and incubated overnight in a 37°C CO2 incubator. […] Compounds were then added to the EDG1(S1P1)/β-arrestin CHO-K1 cells—10 μl per well of the 11X stock was added to the 100 ul per well of cells and the plate was incubated for 90 min in a 37°C CO2 incubator. The detection solution was prepared according to the manufacture’s protocol and 55 μl was added to each well of assay plate. The plate was then incubated for 1 h at room temperature before being read on a SpectraMax5 plate reader. Basal β-arrestin recruitment was determined using medium containing DMSO alone.

human S1P5 [6] = target: T2, human S1P5; experiment: Saturation radioligand binding with [^3H]-ozanimod; settings: CHO cell membranes expressing human S1P5, saturation binding
Description: as §1, with “Cell pellets were then resuspended and homogenized in membrane preparation buffer (10 mM HEPES/10 mM EDTA, pH 7.4) using a Polytron PT 1200E homogenizer (Kinematica, Luzern, Switzerland). To collect the membrane pellet, cell homogenates were centrifuged at 48,000 × g at 4°C for 30 min. After discarding the supernatant, the pellet was rehomogenized and recentrifuged as described above. The final pellet was collected and homogenized in ice-cold resuspension buffer (10 mM HEPES and 0.1 mM EDTA, pH 7.4).” left out
Filter plates were prepared by adding 80 μl/well of 0.3% poly (ethyleneimine) and incubating for 60 min at room temperature before washing with 150 ml of filtration buffer (50 mM Tris HCl [pH 7.4], 5 mM MgCl2, and 1 mM EDTA) using a FilterMate-96 harvester. […] Filter plates were then allowed to air dry before the addition of 50 μL/well of MicroScint-20 cocktail, plate sealing, and reading on a MicroBeta2 microplate scintillation counter. […]

T1 sequence (P21453 whole entry): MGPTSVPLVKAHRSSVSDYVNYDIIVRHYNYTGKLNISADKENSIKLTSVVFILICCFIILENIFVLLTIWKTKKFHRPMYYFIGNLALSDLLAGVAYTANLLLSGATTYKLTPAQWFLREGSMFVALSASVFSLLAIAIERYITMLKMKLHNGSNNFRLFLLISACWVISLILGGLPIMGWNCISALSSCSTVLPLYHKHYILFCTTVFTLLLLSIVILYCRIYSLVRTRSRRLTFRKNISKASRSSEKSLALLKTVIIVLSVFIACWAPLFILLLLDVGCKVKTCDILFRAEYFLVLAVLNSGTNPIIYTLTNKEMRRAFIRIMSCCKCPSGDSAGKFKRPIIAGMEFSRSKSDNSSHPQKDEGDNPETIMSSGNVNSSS

Compound	Ki (human S1P1 [1])	Ki (human S1P5 [2])	EC50 (human S1P3)	Human S1P3 IA (human S1P3)	EC50 (human S1P1 [3])	Human S1P1 IA (human S1P1 [3])	EC50 (human S1P2)	EC50 (human S1P4)	Human S1P4 IA (human S1P4)	EC50 (human S1P5 [4])	Human S1P5 IA (human S1P5 [4])	Human S1P5 IA (human S1P5 [4]; listed as amiselimod-p)	Emax (human S1P1 [5])	EC50 (human S1P1 [5])	GTPγS potency for human S1P5 weaker than that for S1P1 (human S1P5 [4])	displacement of specific [^3H]-ozanimod binding, S1P1 (human S1P1 [1]; result in words)	displacement of specific [^3H]-ozanimod binding, S1P5 (human S1P5 [2]; result in words)	Kd (human S1P5 [6])	Human S1P2 IA (human S1P2)
O=C(O)C[C@H]1CCc2c1[nH]c1ccc(OCc3ccc(C4CCCC4)c(C(F)(F)F)c3)cc21 [Etrasimod]	6.73 ± 0.62 nM	16.3 ± 0.71 nM	1160 ± 354 nM	81.2 ± 17%	5.48 ± 0.46 nM	86.6 ± 1.1%	> 10 µM	1130 ± 189 nM	40.4 ± 4.6%	58.9 ± 6.75 nM	82 ± 4.4%		75.8 ± 1.8%	11.3 ± 2.32 nM	approximately 10 fold				NR (NR indicates no response where the maximal response was less than 10% of that of S1P)
CC(C)Oc1ccc(-c2nc(-c3cccc4c3CC[C@@H]4NCCO)no2)cc1C#N [Ozanimod]		1.93 ± 0.07 nM	> 1110 nM	89.4 ± 7.4%		85 ± 1%	> 10 µM	1490 ± 306 nM	39.4 ± 5.3%	5.84 ± 0.51 nM	97 ± 3.7%		68.7 ± 3.5%		approximately 10 fold				34.8 ± 1%
CCC/N=C1\S/C(=C\c2ccc(OC[C@H](O)CO)c(Cl)c2)C(=O)N1c1ccccc1C [Ponesimod]	9.37 ± 1.31 nM	17.4 ± 4.32 nM	89.5 ± 14.3 nM	82.1 ± 7.5%	3.42 ± 1.17 nM	85.8 ± 6.2%	> 10 µM	> 10000 nM	26.5 ± 2.5%	43.2 ± 12 nM	92.9 ± 9.8%		61.2 ± 1.6%	2.66 ± 0.42 nM	approximately 10 fold				NR (NR indicates no response where the maximal response was less than 10% of that of S1P)
CCCCCCCCCCCCC/C=C/[C@@H](O)[C@@H](N)COP(=O)(O)O [S1P, sphingosine 1-phosphate]	2.33 ± 0.17 nM															completely displaced	completely displaced		
CCc1cc(/C(C)=N/OCc2ccc(C3CCCCC3)c(C(F)(F)F)c2)ccc1CN1CC(C(=O)O)C1 [Siponimod]	0.74 ± 0.09 nM	0.43 ± 0.08 nM	> 1110 nM	90.7 ± 2.5%	0.46 ± 0.05 nM	82.1 ± 0.9%	> 10 µM	384 ± 67.8 nM	81.5 ± 2.4%	0.3 ± 0.02 nM	102 ± 9.1%		68.6 ± 9.2%	9.3 ± 2.79 nM					NR (NR indicates no response where the maximal response was less than 10% of that of S1P)
[3H]CC([3H])(C)Oc1ccc(-c2nc(-c3cccc4c3CC[C@@H]4NCCO)no2)cc1C#N (stereo partly drawn) [[^3H]-ozanimod]																		3.13 nM	

The next lines start with results.

Ki (human S1P1 [1])	Ki (human S1P5 [2])	EC50 (human S1P3)	Human S1P3 IA (human S1P3)	EC50 (human S1P1 [3])	Human S1P1 IA (human S1P1 [3])	EC50 (human S1P2)	EC50 (human S1P4)	Human S1P4 IA (human S1P4)	EC50 (human S1P5 [4])	Human S1P5 IA (human S1P5 [4])	Human S1P5 IA (human S1P5 [4]; listed as amiselimod-p)	Emax (human S1P1 [5])	EC50 (human S1P1 [5])	GTPγS potency for human S1P5 weaker than that for S1P1 (human S1P5 [4])	displacement of specific [^3H]-ozanimod binding, S1P1 (human S1P1 [1]; result in words)	displacement of specific [^3H]-ozanimod binding, S1P5 (human S1P5 [2]; result in words)	Kd (human S1P5 [6])	Compound	Human S1P2 IA (human S1P2)
0.13 ± 0.02 nM	0.25 ± 0.04 nM	19 ± 2.98 nM	29.1 ± 1.6%	0.15 ± 0.01 nM	84.1 ± 1.6%	> 4 µM	2.23 ± 0.13 nM	122.2 ± 3.6%	0.58 ± 0.08 nM	76.6 ± 6.9%	76.6%	76.1 ± 11.6%	2.83 ± 2.21 nM					CCCCCCCOc1ccc(CCC(N)(CO)COP(=O)(O)O)cc1C(F)(F)F (stereo not drawn) [Amiselimod-p]	NR (NR indicates no response where the maximal response was less than 10% of that of S1P)
			106.5 ± 8.3%		84.9 ± 2.3%		2.06 ± 0.3 nM	59.2 ± 5.4%		74% and 74 ± 5.1%		79.8 ± 4.3%						CCCCCCCCc1ccc(CCC(N)(CO)COP(=O)(O)O)cc1 (stereo not drawn) [FTY720-p, FTY720-phosphate]	33.2 ± 1%
0.22 ± 0.02 nM	0.24 ± 0.04 nM	3.17 ± 0.26 nM	25.7 ± 3.8%	0.26 nM	85.7 ± 3.6%	> 10 µM	3.13 ± 0.29 nM	56.3 ± 3.8%	0.69 ± 0.19 nM	45.8 ± 7.6%		72.3 ± 5.4%	2.98 ± 0.96 nM					NC(CO)(CCc1ccc(Sc2cccc(OCc3ccccc3)c2)cc1Cl)COP(=O)(O)O (stereo not drawn) [KRP-203-p, KRP-203-phosphate]	NR (NR indicates no response where the maximal response was less than 10% of that of S1P)
